Patent publication US20240270751A1, “Pyrazolopyridinone Compounds” (BeiGene Ltd., priority 2021, published 2024)

How the values were obtained:
DGKα = DGKα (Homo sapiens (Human), UniProt P23743); test: Biochemical DGK IC50 assay, DGKα ADP-Glo assay; settings: 7.5 nM enzyme, 140 μM ATP, 80 μM DAG
Method in brief: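 Compounds at final 1.55˜10000 nM or 23.3˜150000 nM were tested against full-length DGKα. Substrate was lipid micelles of DAG and PS resuspended in 25 mM HEPES pH 7.0 with 0.5 mM EDTA and 160 mM octyl β-D-glucopyranoside. ADP formed was detected by ADP-Glo.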

DGKζ = DGKζ (Homo sapiens (Human), UniProt Q13574); test: Biochemical DGK IC50 assay, DGKζ ADP-Glo assay; settings: 0.5 nM enzyme, 140 μM ATP, 80 μM DAG; read-out: DGKζ ADP-Glo assay IC50
DGKζ, sequence (Q13574 other isoform, or with tags, fused parts or gaps): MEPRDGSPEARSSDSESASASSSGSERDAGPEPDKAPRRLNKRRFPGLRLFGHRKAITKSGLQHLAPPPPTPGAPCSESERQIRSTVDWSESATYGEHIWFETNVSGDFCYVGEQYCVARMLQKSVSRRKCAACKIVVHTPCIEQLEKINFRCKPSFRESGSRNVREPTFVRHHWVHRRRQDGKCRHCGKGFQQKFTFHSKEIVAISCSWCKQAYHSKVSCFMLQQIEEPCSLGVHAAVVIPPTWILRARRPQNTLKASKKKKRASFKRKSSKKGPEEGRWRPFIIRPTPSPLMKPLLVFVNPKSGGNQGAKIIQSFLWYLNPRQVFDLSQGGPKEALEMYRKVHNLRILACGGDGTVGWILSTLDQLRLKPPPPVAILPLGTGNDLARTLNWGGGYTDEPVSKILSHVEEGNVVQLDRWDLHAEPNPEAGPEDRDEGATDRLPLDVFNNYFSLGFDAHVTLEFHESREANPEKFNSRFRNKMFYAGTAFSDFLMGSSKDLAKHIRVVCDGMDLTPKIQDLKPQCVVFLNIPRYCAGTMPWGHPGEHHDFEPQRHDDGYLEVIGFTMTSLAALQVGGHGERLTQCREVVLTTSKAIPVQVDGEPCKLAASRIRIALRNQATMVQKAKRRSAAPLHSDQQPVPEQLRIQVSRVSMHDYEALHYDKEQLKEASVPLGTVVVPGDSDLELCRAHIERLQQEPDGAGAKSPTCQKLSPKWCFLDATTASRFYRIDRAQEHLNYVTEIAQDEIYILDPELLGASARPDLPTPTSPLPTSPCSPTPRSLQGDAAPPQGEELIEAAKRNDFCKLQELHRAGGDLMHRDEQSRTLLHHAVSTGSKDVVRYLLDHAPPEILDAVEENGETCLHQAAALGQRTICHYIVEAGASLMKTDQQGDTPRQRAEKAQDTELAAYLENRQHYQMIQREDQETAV
Method in brief: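 ADP formation measured by ADP-Glo luminescence, with test compounds at final 1.55–10000 nM or 23.3–150000 nM. Enzyme: purified full-length human DGKζ from Sf9 insect cells; substrate: DAG/PS micelles in 25 mM HEPES pH 7.0, 0.5 mM EDTA, octyl glucoside.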

DGKα, sequence (P23743 whole entry): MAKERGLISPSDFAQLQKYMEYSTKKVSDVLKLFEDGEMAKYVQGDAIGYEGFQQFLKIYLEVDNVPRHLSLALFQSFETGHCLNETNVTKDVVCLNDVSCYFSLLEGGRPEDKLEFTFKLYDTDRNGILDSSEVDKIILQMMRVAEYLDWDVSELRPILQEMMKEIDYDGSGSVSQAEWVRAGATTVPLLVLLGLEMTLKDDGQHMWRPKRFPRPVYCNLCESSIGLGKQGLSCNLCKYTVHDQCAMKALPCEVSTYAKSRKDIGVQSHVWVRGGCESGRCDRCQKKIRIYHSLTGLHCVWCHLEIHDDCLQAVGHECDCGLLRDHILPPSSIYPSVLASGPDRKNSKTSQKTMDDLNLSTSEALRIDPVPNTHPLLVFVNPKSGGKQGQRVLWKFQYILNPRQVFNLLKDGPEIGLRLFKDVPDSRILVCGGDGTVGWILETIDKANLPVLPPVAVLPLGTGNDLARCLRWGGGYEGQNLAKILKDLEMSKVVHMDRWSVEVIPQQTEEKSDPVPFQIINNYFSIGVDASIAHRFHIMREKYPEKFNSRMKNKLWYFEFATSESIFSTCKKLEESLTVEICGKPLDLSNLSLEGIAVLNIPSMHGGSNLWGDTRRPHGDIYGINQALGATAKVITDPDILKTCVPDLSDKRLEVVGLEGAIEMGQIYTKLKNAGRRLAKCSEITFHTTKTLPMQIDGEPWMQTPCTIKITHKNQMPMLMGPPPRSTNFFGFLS

Row | IC50 (DGKα) [nM] | IC50 (DGKζ) [nM] | Structure (SMILES)
1 | > 10000 | 106 | CC[C@@H]1CN(c2cc(=O)n(C)c3cn(CC#N)nc23)[C@@H](C)CN1C(C)c1ccc(F)cc1OC (stereo partly drawn) [Compound A137, 2-(7-((2S,5R)-5-ethyl-4-(1-(4-fluoro-2-methoxyphenyl)ethyl)-2-methylpiperazin-1-yl)-4-methyl-5-oxo-4,5-dihydro-2H-pyrazolo[4,3-b]pyridin-2-yl)acetonitrile]
2 | 1280 | 480 | CC[C@H]1CN(C(C)c2ccc3c(c2)NCCO3)[C@H](CC)CN1c1cc(=O)n(C)c2cn(CC#N)nc12 (some centres unmarked) [Compound A138]
3 | 82 | 189 | CC[C@H]1CN(C(C)c2ccc(OC(C)C)cn2)[C@H](CC)CN1c1cc(=O)n(C)c2cn(CC#N)nc12 (some centres unmarked) [Compound A140]
4 | 6630 | 696 | CCOc1cc(F)ccc1C(C)N1C[C@H](CC)N(c2cc(=O)n(C)c3cn(CC#N)nc23)C[C@H]1CC (some centres unmarked) [Compound A141]
5 | 6580 | 1220 | CC[C@H]1CN(C(C)c2ccc(F)cc2OC(C)C)[C@H](CC)CN1c1cc(=O)n(C)c2cn(CC#N)nc12 (some centres unmarked) [Compound A142]
6 | > 10000 | 253 | COC[C@H]1CN(C(C)c2ccc3nccnc3c2)[C@H](C)CN1c1cc(=O)n(C)c2cn(CC#N)nc12 (stereo partly drawn) [Compound A143, 2-(7-((2R,5R)-2-(methoxymethyl)-5-methyl-4-(1-(quinoxalin-6-yl)ethyl)piperazin-1-yl)-4-methyl-5-oxo-4,5-dihydro-2H-pyrazolo[4,3-b]pyridin-2-yl)acetonitrile]
7 | 105000 | 42 | CC[C@H]1CN(C(C)c2nc3ccccc3n2CC)[C@H](CC)CN1c1cc(=O)n(C)c2cn(CC#N)nc12 (stereo partly drawn) [Compound A144, 2-(7-((2S,5R)-2,5-diethyl-4-(1-(1-ethyl-1H-benzo[d]imidazol-2-yl)ethyl)piperazin-1-yl)-4-methyl-5-oxo-4,5-dihydro-2H-pyrazolo[4,3-b]pyridin-2-yl)acetonitrile]
8 | 20300 | 55 | CC(c1ccc2nccnc2c1)N1C[C@H](CCO)N(c2cc(=O)n(C)c3cn(CC#N)nc23)C[C@H]1C (stereo partly drawn) [Compound A145, 2-(7-((2S,5R)-2-(2-hydroxyethyl)-5-methyl-4-(1-(quinoxalin-6-yl)ethyl)piperazin-1-yl)-4-methyl-5-oxo-4,5-dihydro-2H-pyrazolo[4,3-b]pyridin-2-yl)acetonitrilecetonitrile]
9 | 34 | 190 | CC[C@H]1CN(C(C)c2ncc(F)cc2F)[C@H](CC)CN1c1cc(=O)n(C)c2cn(CC#N)nc12 (some centres unmarked) [Compound A148]
10 | > 10000 | 2040 | CC[C@H]1CN(C(C)c2cccc(CN(C)C)c2)[C@H](CC)CN1c1cc(=O)n(C)c2cn(CC#N)nc12 (some centres unmarked) [Compound A151]
11 | 4380 | 1770 | CC[C@H]1CN(C(C)c2ccc(F)cc2CO)[C@H](CC)CN1c1cc(=O)n(C)c2cn(CC#N)nc12 (stereo partly drawn) [Compound A152, 2-(7-((2S,5R)-2,5-diethyl-4-(1-(4-fluoro-2-(hydroxymethyl)phenyl)ethyl)piperazin-1-yl)-4-methyl-5-oxo-4,5-dihydro-2H-pyrazolo[4,3-b]pyridin-2-yl)acetonitrile]
12 | 1750 | 18 | CC[C@@H]1CN(c2c(C#N)c(=O)n(C)c3cn(CC#N)nc23)[C@@H](C)CN1C(C)c1ccc2nccnc2c1 (stereo partly drawn) [Compound A156, 2-(cyanomethyl)-7-((2S,5R)-5-ethyl-2-methyl-4-(1-(quinoxalin-6-yl)ethyl)piperazin-1-yl)-4-methyl-5-oxo-4,5-dihydro-2H-pyrazolo[4,3-b]pyridine-6-carbonitrile]

Row | Structure (SMILES) | IC50 (DGKα) [nM] | IC50 (DGKζ) [nM]
13 | CC(c1ccc2nccnc2c1)N1C[C@H](C)N(c2nc(=O)n(C)c3cn(CC#N)nc23)C[C@H]1C (stereo partly drawn) [Compound A154, 2-(7-((2S,5R)-2,5-dimethyl-4-(1-(quinoxalin-6-yl)ethyl)piperazin-1-yl)-4-methyl-5-oxo-4,5-dihydro-2H-pyrazolo[4,3-d]pyrimidin-2-yl)acetonitrile] | 9210 | 104
